According to patent US20230257396A1, “MACROCYCLES AND THEIR USE” (BLOSSOMHILL THERAPEUTICS, INC., priority 2020, published 2023):

How the values were obtained:
Assay in all cases: KINOMEscan kinase binding assay (Eurofins/DiscoveRx), % Ctrl
kinases [1] = target: T1, kinases (Homo sapiens, UniProt P10721, V559D); conditions: 1 μM; target KIT(V559D)
T1 construct: purchased Eurofins/DiscoveRx; host or cells: E. coli BL21-derived host (T7 phage display) for most kinases; HEK-293 for the rest
In short: (§1)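 Competition binding, 1 h RT: phage-tagged or HEK-293-expressed DNA-tagged kinase + immobilized ligand + compound. Eluate kinase by qPCR. % Ctrl = (test − positive ctrl)/(negative ctrl − positive ctrl) × 100; lower means stronger binding.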

kinases [2] = target: T2, kinases (Homo sapiens, UniProt P00519); conditions: 1 μM; for % Ctrl, ABL1-nonphosphorylated: target ABL1-nonphosphorylated; for % Ctrl, ABL1-phosphorylated: target ABL1-phosphorylated
T2 construct: purchased Eurofins/DiscoveRx; host or cells: E. coli BL21-derived host (T7 phage display) for most kinases; HEK-293 for the rest
In short: as §1

kinases [3] = target: T3, kinases (Homo sapiens, UniProt P10721, D816H); conditions: 1 μM; target KIT(D816H)
T3 construct: purchased Eurofins/DiscoveRx; host or cells: E. coli BL21-derived host (T7 phage display) for most kinases; HEK-293 for the rest
In short: as §1

kinases [4] = target: T4, kinases (Homo sapiens, UniProt P00519, E255K); conditions: 1 μM; target ABL1(E255K)-phosphorylated
T4 construct: purchased Eurofins/DiscoveRx; host or cells: E. coli BL21-derived host (T7 phage display) for most kinases; HEK-293 for the rest
In short: as §1

kinases [5] = target: T5, kinases (Homo sapiens, UniProt P07949, M918T); conditions: 1 μM; target RET(M918T)
T5 construct: purchased Eurofins/DiscoveRx; host or cells: E. coli BL21-derived host (T7 phage display) for most kinases; HEK-293 for the rest
In short: as §1

kinases [6] = target: T6, kinases (Homo sapiens, UniProt P36888); conditions: 1 μM; for % Ctrl, FLT3: target FLT3; for % Ctrl, FLT3-autoinhibited: target FLT3-autoinhibited
T6 construct: purchased Eurofins/DiscoveRx; host or cells: E. coli BL21-derived host (T7 phage display) for most kinases; HEK-293 for the rest
T6 sequence (P36888 27-993): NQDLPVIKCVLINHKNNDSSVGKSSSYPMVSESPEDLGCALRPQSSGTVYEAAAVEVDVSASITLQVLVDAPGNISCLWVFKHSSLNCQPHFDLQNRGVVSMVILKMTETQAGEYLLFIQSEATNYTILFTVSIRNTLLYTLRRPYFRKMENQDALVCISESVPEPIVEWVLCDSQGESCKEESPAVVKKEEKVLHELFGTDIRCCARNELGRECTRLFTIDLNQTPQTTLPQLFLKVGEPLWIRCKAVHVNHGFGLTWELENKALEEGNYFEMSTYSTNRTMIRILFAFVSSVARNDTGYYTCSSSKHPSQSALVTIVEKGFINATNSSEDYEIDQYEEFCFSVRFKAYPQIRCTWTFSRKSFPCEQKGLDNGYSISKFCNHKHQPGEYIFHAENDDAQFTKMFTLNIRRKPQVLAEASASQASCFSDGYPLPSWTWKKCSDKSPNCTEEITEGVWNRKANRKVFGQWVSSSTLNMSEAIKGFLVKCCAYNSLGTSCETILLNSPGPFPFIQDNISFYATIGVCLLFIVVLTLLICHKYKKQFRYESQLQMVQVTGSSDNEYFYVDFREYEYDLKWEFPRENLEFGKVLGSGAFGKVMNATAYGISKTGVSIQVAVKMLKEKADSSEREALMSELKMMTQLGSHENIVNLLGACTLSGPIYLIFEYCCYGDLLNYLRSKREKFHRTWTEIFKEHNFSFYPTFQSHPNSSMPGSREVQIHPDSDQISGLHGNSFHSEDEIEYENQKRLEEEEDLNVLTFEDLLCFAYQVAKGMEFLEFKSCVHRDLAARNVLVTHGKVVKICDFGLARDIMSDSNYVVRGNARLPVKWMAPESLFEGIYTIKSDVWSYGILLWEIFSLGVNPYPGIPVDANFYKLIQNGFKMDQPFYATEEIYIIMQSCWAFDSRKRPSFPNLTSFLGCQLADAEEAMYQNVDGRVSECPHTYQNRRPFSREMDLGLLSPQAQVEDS
In short: as §1

kinases [7] = target: T7, kinases (Homo sapiens, UniProt P42684); conditions: 1 μM; target ABL2
T7 construct: purchased Eurofins/DiscoveRx; host or cells: E. coli BL21-derived host (T7 phage display) for most kinases; HEK-293 for the rest
In short: as §1

kinases [8] = target: T8, kinases (Homo sapiens, UniProt P00519, T315I); conditions: 1 μM; for % Ctrl, ABL1(T315I)-nonphosphorylated: target ABL1(T315I)-nonphosphorylated; for % Ctrl, ABL1(T315I)-phosphorylated: target ABL1(T315I)-phosphorylated
T8 construct: purchased Eurofins/DiscoveRx; host or cells: E. coli BL21-derived host (T7 phage display) for most kinases; HEK-293 for the rest
In short: as §1

kinases [9] = target: T9, kinases (Homo sapiens, UniProt P00533, DEL752-759); conditions: 1 μM; target EGFR(S752-I759del)
T9 construct: purchased Eurofins/DiscoveRx; host or cells: E. coli BL21-derived host (T7 phage display) for most kinases; HEK-293 for the rest
In short: as §1

kinases [10] = target: T10, kinases (Homo sapiens, UniProt P00533, L861Q); conditions: 1 μM; target EGFR(L861Q)
T10 construct: purchased Eurofins/DiscoveRx; host or cells: E. coli BL21-derived host (T7 phage display) for most kinases; HEK-293 for the rest
In short: as §1

kinases [11] = target: T11, kinases (Homo sapiens, UniProt P16234); conditions: 1 μM; target PDGFRA
T11 construct: purchased Eurofins/DiscoveRx; host or cells: E. coli BL21-derived host (T7 phage display) for most kinases; HEK-293 for the rest
In short: as §1

kinases [12] = target: T12, kinases (Homo sapiens, UniProt P07949); conditions: 1 μM; target RET
T12 construct: purchased Eurofins/DiscoveRx; host or cells: E. coli BL21-derived host (T7 phage display) for most kinases; HEK-293 for the rest
In short: as §1

kinases [13] = target: T13, kinases (Homo sapiens, UniProt P00519, Q252H); conditions: 1 μM; for % Ctrl, ABL1(Q252H)-nonphosphorylated: target ABL1(Q252H)-nonphosphorylated; for % Ctrl, ABL1(Q252H)-phosphorylated: target ABL1(Q252H)-phosphorylated
T13 construct: purchased Eurofins/DiscoveRx; host or cells: E. coli BL21-derived host (T7 phage display) for most kinases; HEK-293 for the rest
In short: as §1

T1 sequence (P10721 26-976 V559D): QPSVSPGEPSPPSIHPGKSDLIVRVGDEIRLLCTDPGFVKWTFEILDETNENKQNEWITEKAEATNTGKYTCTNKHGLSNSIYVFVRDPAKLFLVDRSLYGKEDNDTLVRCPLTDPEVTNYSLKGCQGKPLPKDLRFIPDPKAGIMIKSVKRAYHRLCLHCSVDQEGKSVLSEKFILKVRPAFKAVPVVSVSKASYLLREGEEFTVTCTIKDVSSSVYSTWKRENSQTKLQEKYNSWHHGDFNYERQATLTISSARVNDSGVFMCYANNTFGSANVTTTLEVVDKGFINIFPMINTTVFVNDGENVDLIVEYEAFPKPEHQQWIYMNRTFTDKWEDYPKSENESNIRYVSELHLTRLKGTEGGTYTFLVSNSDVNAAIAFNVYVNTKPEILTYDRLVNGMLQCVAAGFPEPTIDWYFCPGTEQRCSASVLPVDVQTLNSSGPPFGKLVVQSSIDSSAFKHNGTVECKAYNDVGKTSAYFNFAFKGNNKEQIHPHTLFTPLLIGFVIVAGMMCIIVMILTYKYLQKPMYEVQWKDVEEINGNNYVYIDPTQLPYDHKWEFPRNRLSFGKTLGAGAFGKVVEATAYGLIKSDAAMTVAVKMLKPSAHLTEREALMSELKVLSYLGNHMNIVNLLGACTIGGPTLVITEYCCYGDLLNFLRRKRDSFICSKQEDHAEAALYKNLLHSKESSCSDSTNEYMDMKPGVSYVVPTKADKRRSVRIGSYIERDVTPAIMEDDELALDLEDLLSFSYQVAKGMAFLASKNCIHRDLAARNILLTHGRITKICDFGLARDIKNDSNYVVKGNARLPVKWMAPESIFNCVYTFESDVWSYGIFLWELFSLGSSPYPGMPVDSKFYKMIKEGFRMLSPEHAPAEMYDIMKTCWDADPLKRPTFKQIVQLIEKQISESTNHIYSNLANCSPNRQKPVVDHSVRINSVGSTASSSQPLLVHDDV
T5 sequence (P07949 29-1114 M918T): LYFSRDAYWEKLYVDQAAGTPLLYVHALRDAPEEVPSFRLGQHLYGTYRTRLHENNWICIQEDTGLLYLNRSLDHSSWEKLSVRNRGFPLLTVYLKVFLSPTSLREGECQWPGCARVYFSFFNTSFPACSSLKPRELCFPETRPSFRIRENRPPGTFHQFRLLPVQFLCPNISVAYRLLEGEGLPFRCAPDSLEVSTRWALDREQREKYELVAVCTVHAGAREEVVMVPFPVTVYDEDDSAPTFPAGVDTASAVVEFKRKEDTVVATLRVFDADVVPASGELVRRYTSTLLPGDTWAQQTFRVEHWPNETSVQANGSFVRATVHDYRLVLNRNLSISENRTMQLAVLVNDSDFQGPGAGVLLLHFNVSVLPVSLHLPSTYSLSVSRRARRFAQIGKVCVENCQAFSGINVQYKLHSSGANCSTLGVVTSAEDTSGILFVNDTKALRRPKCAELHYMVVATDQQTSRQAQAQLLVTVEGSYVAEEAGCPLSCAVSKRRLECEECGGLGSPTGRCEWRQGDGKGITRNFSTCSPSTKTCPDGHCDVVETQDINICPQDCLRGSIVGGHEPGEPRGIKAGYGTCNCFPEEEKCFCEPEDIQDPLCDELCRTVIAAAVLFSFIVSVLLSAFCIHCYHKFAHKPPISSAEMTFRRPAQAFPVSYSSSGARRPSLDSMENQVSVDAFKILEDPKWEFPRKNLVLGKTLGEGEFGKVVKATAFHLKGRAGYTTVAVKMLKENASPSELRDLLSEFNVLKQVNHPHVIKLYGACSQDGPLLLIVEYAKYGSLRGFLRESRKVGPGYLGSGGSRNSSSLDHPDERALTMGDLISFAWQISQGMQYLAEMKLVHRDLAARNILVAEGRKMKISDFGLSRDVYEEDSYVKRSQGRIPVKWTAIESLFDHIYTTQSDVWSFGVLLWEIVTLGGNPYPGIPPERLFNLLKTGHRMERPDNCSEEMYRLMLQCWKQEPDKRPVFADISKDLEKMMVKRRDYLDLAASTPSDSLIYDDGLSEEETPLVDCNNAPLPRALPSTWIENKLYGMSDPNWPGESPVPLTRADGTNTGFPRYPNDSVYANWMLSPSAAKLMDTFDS
T3 sequence (P10721 26-976 D816H): as the sequence (P10721 26-976 V559D) above, with D534V, D791H counted along it
T11 sequence (P16234 24-1089): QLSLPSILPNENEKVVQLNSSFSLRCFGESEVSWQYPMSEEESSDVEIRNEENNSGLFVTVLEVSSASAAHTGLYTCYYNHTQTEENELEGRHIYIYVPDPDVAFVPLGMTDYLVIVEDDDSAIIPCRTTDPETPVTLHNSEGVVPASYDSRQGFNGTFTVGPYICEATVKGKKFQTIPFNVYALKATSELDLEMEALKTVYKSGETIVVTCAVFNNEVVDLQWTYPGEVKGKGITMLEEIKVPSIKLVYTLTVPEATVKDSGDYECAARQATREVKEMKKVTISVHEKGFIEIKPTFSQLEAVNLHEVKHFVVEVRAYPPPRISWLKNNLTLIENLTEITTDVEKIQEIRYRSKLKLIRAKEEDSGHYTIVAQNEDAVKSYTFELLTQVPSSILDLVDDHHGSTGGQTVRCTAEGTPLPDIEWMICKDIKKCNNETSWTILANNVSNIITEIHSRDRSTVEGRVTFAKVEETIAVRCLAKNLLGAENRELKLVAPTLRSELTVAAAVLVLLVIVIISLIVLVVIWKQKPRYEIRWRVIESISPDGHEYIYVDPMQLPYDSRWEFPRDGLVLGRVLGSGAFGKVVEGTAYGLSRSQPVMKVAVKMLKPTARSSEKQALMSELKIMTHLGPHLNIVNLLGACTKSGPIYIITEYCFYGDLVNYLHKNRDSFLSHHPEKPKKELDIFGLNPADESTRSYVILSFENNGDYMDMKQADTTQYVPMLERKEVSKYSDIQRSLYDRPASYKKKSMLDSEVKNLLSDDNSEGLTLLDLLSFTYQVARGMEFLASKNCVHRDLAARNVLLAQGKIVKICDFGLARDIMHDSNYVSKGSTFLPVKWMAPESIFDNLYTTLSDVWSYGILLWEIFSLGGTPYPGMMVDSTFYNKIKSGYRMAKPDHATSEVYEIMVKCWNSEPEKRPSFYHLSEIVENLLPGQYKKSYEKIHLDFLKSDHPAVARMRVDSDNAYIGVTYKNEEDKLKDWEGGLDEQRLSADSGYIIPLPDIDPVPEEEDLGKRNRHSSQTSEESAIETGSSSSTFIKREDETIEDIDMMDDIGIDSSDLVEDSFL
T12 sequence (P07949 29-1114): as the sequence (P07949 29-1114 M918T) above, with T890M counted along it
T7 sequence (P42684 whole entry): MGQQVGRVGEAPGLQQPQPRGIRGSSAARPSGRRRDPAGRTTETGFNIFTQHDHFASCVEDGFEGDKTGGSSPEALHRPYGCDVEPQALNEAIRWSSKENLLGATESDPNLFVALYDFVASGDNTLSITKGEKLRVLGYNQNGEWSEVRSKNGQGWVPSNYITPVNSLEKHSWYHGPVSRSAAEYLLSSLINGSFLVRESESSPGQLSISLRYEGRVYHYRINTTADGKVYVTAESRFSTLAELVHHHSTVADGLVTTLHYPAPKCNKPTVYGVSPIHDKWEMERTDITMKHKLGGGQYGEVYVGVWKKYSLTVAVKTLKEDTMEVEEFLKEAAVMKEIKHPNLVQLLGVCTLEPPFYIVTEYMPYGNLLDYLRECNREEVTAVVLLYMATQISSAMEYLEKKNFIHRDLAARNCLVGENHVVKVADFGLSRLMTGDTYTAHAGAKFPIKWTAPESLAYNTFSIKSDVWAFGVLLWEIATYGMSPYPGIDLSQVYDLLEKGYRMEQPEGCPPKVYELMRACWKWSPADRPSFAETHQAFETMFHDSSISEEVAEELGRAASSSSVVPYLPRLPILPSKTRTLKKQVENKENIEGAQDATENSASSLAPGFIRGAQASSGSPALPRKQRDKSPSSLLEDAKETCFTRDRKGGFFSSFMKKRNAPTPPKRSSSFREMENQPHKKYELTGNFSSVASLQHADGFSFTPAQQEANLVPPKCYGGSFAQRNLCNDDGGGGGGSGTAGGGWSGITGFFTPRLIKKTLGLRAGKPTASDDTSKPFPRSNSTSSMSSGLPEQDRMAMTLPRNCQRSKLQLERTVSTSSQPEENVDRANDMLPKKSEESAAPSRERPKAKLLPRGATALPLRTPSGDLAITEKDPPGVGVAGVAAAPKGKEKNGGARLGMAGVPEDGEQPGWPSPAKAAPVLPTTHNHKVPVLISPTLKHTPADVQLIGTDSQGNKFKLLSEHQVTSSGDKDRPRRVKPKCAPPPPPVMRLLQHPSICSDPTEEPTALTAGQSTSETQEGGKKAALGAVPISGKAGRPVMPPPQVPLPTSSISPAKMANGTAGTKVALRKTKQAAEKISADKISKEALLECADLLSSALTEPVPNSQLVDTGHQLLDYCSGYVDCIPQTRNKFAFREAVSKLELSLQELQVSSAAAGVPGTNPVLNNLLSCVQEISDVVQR

% Ctrl, KIT(V559D) (kinases [1]) [% Ctrl]	% Ctrl, ABL1-nonphosphorylated (kinases [2]) [% Ctrl]	% Ctrl, ABL1-phosphorylated (kinases [2]) [% Ctrl]	% Ctrl, KIT(D816H) (kinases [3]) [% Ctrl]	% Ctrl, ABL1(E255K)-phosphorylated (kinases [4]) [% Ctrl]	% Ctrl, RET(M918T) (kinases [5]) [% Ctrl]	% Ctrl, FLT3 (kinases [6]) [% Ctrl]	% Ctrl, FLT3-autoinhibited (kinases [6]) [% Ctrl]	% Ctrl, ABL2 (kinases [7]) [% Ctrl]	% Ctrl, ABL1(T315I)-nonphosphorylated (kinases [8]) [% Ctrl]	% Ctrl, ABL1(T315I)-phosphorylated (kinases [8]) [% Ctrl]	% Ctrl, EGFR(S752-I759del) (kinases [9]) [% Ctrl]	% Ctrl, EGFR(L861Q) (kinases [10]) [% Ctrl]	% Ctrl, PDGFRA (kinases [11]) [% Ctrl]	% Ctrl, RET (kinases [12]) [% Ctrl]	% Ctrl, ABL1(Q252H)-nonphosphorylated (kinases [13]) [% Ctrl]	% Ctrl, ABL1(Q252H)-phosphorylated (kinases [13]) [% Ctrl]	Compound
6.9	0.1	0.1	22	0.1	0	2.5	63	2.3	0.6	1.4	55	63	30	0	0.1	0	CN1CCOc2cc3c(cc2Cl)NC(=O)/C3=C\c2[nH]ccc2C(=O)N(C)CC1 [Ex. 164, [16a(17)Z]-19-chloro-2,5,8-trimethyl-5,6,7,8,9,10-hexahydro-12,14-(ethanediylidene)dipyrrolo[3,2-i:3′,4′-l][1,4,7]oxadiazacyclopentadecine-4,16(1H,15H)-dione]
54	4.1	3.6	10	1.8	2.9	4.2	2	51	1.4	1.2	93	99	50	7.1	2.6	3.8	Cc1cc2c([nH]1)/C=C1\C(=O)Nc3ccc(cc31)-c1cnn(C)c1OCCCN(C)C2=O [Ex. 166, [3a(4)Z]-9,14-dimethyl-9,10,11,12-tetrahydro-14H-1,17-(ethanediylidene)pyrazolo[4,3-n]dipyrrolo[3,2-g:3′,4′-j][1,5]oxazacyclopentadecine-3,8(2H,5H)-dione]
1.2	0	0	8.3	0.3	0	1.8	12	0.3	0.3	0.1	61	77	16	0	0	0.3	Cc1cc2c([nH]1)/C=C1\C(=O)Nc3cc(Cl)c(cc31)SCCOCCN(C)C2=O [Ex. 169, [16a(17)Z]-19-chloro-5-methyl-6,7,9,10-tetrahydro-1H-12,14-(ethanediylidene)dipyrrolo[3,4-g:2′,3′-j][1,4,13]oxathiazacyclopentadecine-4,16(5H,15H)-dione]
